US8889902B2, “Acetylsalicylic acid salts” (priority 2009, dated 2014)
Values joined by “and” are separate entries in the source; they are usually repeats but may differ in a detail not shown here. Identical values can stand only once. Marks after values point to notes of the source that are not given here.

Tests used:
[1] = tested on: abdominal constrictions in writhing test model; test: Mouse writhing test (acetic acid i.p.); type: in vivo, mice; details: for No. of constrictions: 10 min observation
Method: In investigating the analgesic, anti-inflammatory and antipyretic effects of MASA methods widely used in evaluation of NSAIDs were employed. Mongrel white laboratory mice and Wistar rats were used in experiments. Animals were kept in groups of 7-8 in adequate cages in climatized rooms at 22±1° C., relative humidity 60±5% and 12/12-hour light/darkness cycle with free access to feed and water.
Aqueous solutions of test substances were prepared ex tempore. In each experimental series a control group was used that received an identical volume of water p.o.
Nociceptive reaction was evaluated by chemical irritation method—writhing test (Charaborty A et al, Indian J of Pharmacology 2004; 36(3):148-150). Animals received i.p. 0.25 ml of 0.75% aqueous acetic acid solution: After the injection animals were placed separately in special boxes and observed for 10 minutes. The number of abdominal constrictions was registered. Analgesic activity was manifested by reduction of the number of abdominal constrictions in the 10 minutes period. Test substances were introduced 30 min before the irritating agent. The level of analgesia was expressed as analgesic index calculated as follows: A=(Cc−Ct)/Cc·100%, where A—Analgesic index Cc—number of contractions in control group, Ct—number of contractions in the test group.

[2] = tested on: response to thermal irritation (hot plate); test: Mouse hot plate test; type: in vivo, mice
[3] = tested on: hyperthermia induced by intramuscular injection of pyrogenal; test: Antipyretic activity, pyrogenal hyperthermia (curative mode); type: in vivo, rats
Method: The antipyretic effect of test substances in therapeutic (curative) mode was investigated on 48 rats with body mass 182-205 g, with hyperthermia induction by injecting pyrogenal in dose 100 μg (Shwarz G Y, Syubaev R D, Vedomosti NCEG lekarstvennyh sredstv MZ RF 2000; 1:44-50 (Rus). Test substances were given p.o. 2 hours after injection of pyrogenal immediately after the recording of elevated body temperature. Rectal temperature was measured by electric thermometer TERMO before the i.m. injection of pyrogenal (baseline temperature), at the peak of hyperthermia (pyrogenal control) and 30 min. after treatment with test substance, i.e., 2½ hours after the injection of pyrogenal. Ambient temperature in laboratory was kept at 20-22° C.

[4] = tested on: carrageneen paw oedema; test: Acute inflammatory oedema model (carrageneen test); type: in vivo, rats; details: 4 h
Method: Experiments were conducted using carrageneen test (Winter C et al, Proc Soc Exptl Biol and Med 1962; III(3):544-547. Wei Jia et al, Journal of Ethnopharmacology 2003(89):139-141; Sutharson Lingadurai et al, African Journal of traditional, complementary and alternative medicines, 2007, 4(4):411-416) on 42 rats with body mass of 226-274 g. Single injection of carrageneen (Sigma) solution (1%) in saline (0.1 ml) was introduced in rat hind leg paw. Test substances were introduced p.o. (through catheter into rat stomach) 30 min. after the injection of carrageneen. The volume of paw was measured by oncometer at baseline and 4 hours after the injection of carrageneen.
The percentage of prevention (inhibition of oedema) was calculated according to formula: P(%)=(1−Vo/Vc)×100, where P—Prevention in % (inhibition of oedema) Vo—difference between the paw volume at baseline and at experimental conditions; Vc—analogical difference in control group.

[5] = tested on: serum lipid levels (C, HDL, LDL, TG); test: Acute hyperlipidemia model (Triton WR1339); type: in vivo, Wistar rats; details: serum 24 h
Method: Male Wistar rats with body mass of 250-270 g were used. Animals were held in groups of 6-8 in climatized rooms at 22±1° C., relative humidity 60±5%, and 12/12-hour light/dark cycle with free access to water and feed. […] The solution of test substances or water was introduced to control and TR group animals p.o. one hour before and 20 hours after the introduction of TR as described below.
Blood for biochemical analysis was collected on the next day (24 hours after the injection of TR) by heart punction under ether narcosis. Serum was separated by centrifugation and analyzed for total cholesterol, HDL, LDL and TG levels by commercial kits.

[6] = tested on: FeCl3 induced carotid artery thrombosis; test: FeCl3 induced carotid artery thrombosis, time till occlusion; type: in vivo, Wistar rats; details: for Time till occlusion, %: control = 100
Excerpt: We chose an experimental thrombosis model based on rat arterial thrombosis induced by FeCl3 (Kurz K et al, Thromb Res 1990, 60:269-280. Wang X, Xu L, Thromb Res 2005,115:95-100). Tissue damage initiated by iron-mediated chemical oxidation predisposes the injured area to platelet adherence and aggregation followed by coagulation activation and fibrin deposition. Male Wistar rats with mass 350-420 g were used in experiments. Animals were kept in groups of 7-8 in adequate cages in climatized room at 22±1° C., relative humidity 60±5% and 12/12-hour light/darkness cycle with free access to feed and water. All experiments were carried out in accordance with the European Community Council's Directive of 24 Nov. 1986 (86/609/EEC) relative to experimental animal care. All efforts were made to minimize animal suffering and to reduce the number of animals used. Rats were randomly divided into various experimental groups, each consisting of not less than seven animals. The vehicle or test compound MD (25 mg/kg), NA (25 mg/kg), MASA (10 mg/kg), ASA (5 mg/kg) and combination MD+NA (25+25 mg/kg), MASA+NA (10+25 mg/kg) and ASA+NA (5+25 mg/kg) was administered by oral route 2 h before the initiation of thrombosis. Parallel experiments were conducted to compare the effects of a single dose of test substance (given 2 h before the initiation of thrombosis) and repeated doses (once daily for 3 days). […] Rats were anaesthetized with pentobarbital sodium (50 mg/kg, i.p. and 10 mg/kg/h) and were placed on a heat controlled operating table throughout the experiment to maintain a body temperature of 37° C. One of the carotid arteries was exposed by cervical incision, separated from the adherent tissue, vagus nerve, and a flow probe (electromagnetic blood flow meter MFV 1200, Nicon Kohden, Japan) was placed on the exposed segment of common carotid artery to record the blood flow. After a stabilization period of 15 min, thrombosis was induced by topically applying (in contact with the adventitial surface of vessel) two pieces (2×1 mm) of Whatman filter paper, soaked in 15% solution of FeCl3. Thrombosis time of carotid artery was recorded as time taken for the complete cessation of the blood flow and has been reported as time till occlusion (TTO).

[7] = 75 mg/kg p.o. 30 min after carrageneen
[8] = 150 mg/kg p.o. 30 min after carrageneen
[9] = 300 mg/kg p.o. 30 min after carrageneen
[10] = 10 mg/kg/d p.o., repeated, 3 days
[11] = 100 mg/kg p.o. 30 min after carrageneen
[12] = 5 mg/kg/d p.o., repeated, 3 days

Question: Which results are given for CC(=O)Oc1ccccc1C(=O)[O-].C[N+](C)(C)NCCC(=O)O [MASA, 3-(trimethylammonioamino)propanoate Acetylsalicylic Acid Addition Salt]?
Answer: Analgesic index ([1]; 75 mg/kg p.o.): 4.5; Animals with positive reaction/total number ([1]; 75 mg/kg p.o. 30 min before acetic acid): 8/8; No. of constrictions ([1]; 75 mg/kg p.o.): 12.13 ± 0.61**^$$; Analgesic index ([1]; 150 mg/kg p.o.): 5.2; Animals with positive reaction/total number ([1]; 150 mg/kg p.o. 30 min before acetic acid): 7/8; No. of constrictions ([1]; 150 mg/kg p.o.): 10.63 ± 1.10**^$$; Analgesic index ([1]; 300 mg/kg p.o.): 7.3; Animals with positive reaction/total number ([1]; 300 mg/kg p.o. 30 min before acetic acid): 5/8; No. of constrictions ([1]; 300 mg/kg p.o.): 6.00 ± 1.39***^$$$; Latent period at 30 min after introduction of test substance ([2]; 75 mg/kg p.o.): 5.4 ± 0.38 s; Latent period at 60 min after introduction of test substance ([2]; 75 mg/kg p.o.): 4.6 ± 0.26 s; Latent period at 30 min after introduction of test substance ([2]; 150 mg/kg p.o.): 9.5 ± 0.53***^&&& s; Latent period at 60 min after introduction of test substance ([2]; 150 mg/kg p.o.): 7.1 ± 0.55 s; Latent period at 30 min after introduction of test substance ([2]; 300 mg/kg p.o.): 9.6 ± 1.12**^& s; Latent period at 60 min after introduction of test substance ([2]; 300 mg/kg p.o.): 8.6 ± 0.60 s; Rectal temperature at 30 minutes after treatment ([3]; 75 mg/kg p.o. 2 h after pyrogenal): 36.90 ± 0.07 °C; Rectal temperature at 30 minutes after treatment ([3]; 150 mg/kg p.o. 2 h after pyrogenal): 36.75 ± 0.09^#$ ° C.; Rectal temperature at 30 minutes after treatment ([3]; 300 mg/kg p.o. 2 h after pyrogenal): 36.40 ± 0.11*^$$% ° C.; Index, % (inhibition of oedema) [4, 7]: 18%; Volume of paw after injection of carrageneen [4, 7]: 2.51 ± 0.11 mL; Index, % (inhibition of oedema) [4, 8]: 93%; Volume of paw after injection of carrageneen [4, 8]: 1.54 ± 0.15***^$& ml; Index, % (inhibition of oedema) [4, 9]: 91%; Volume of paw after injection of carrageneen [4, 9]: 1.79 ± 0.15 mL; C ([5]; 75 mg/kg p.o., TR 250 mg/kg): 341.9 ± 16.3 mg/dL; HDL ([5]; 75 mg/kg p.o., TR 250 mg/kg): 68.1 ± 8.7 mg/dL; LDL ([5]; 75 mg/kg p.o., TR 250 mg/kg): 270.1 ± 12.8 mg/dL; TG ([5]; 75 mg/kg p.o., TR 250 mg/kg): 861 ± 105.7 mg/dL; C ([5]; 150 mg/kg p.o., TR 250 mg/kg): 249.6 ± 22.2**^$& mg/dl and 249.6 ± 22.2**^$ mg/dl and 249.6 ± 22.2**^& mg/dl; HDL ([5]; 150 mg/kg p.o., TR 250 mg/kg): 58.2 ± 8.1 mg/dL; LDL ([5]; 150 mg/kg p.o., TR 250 mg/kg): 182.4 ± 19.6**^$& mg/dl and 182.4 ± 19.6**^$ mg/dl and 182.4 ± 19.6**^& mg/dl; TG ([5]; 150 mg/kg p.o., TR 250 mg/kg): 668 ± 104.4**^$& mg/dl and 668 ± 70.9**^$ mg/dl and 668 ± 70.9**^& mg/dl; C ([5]; 300 mg/kg p.o., TR 250 mg/kg): 219.0 ± 16.7**^$#& mg/dl; HDL ([5]; 300 mg/kg p.o., TR 250 mg/kg): 56.3 ± 8.6 mg/dL; LDL ([5]; 300 mg/kg p.o., TR 250 mg/kg): 158.6 ± 19.4**^$#& mg/dl; TG ([5]; 300 mg/kg p.o., TR 250 mg/kg): 548 ± 73.2***^&$# mg/dl; Time till occlusion ([6]; 10 mg/kg p.o., single dose 2 h before): 41.7 ± 3.95^2 min and 41.7 ± 3.95^2b min; Time till occlusion, % ([6]; 10 mg/kg p.o., single dose): 171%; Time till occlusion [6, 10]: 48.4 ± 4.35^2 min; Time till occlusion, % [6, 10]: 191%

Question: For CC(=O)Oc1ccccc1C(=O)O [ASA, acetylsalicylic acid], which Analgesic index ([1]; 50 mg/kg p.o.) is on record?
Answer: 7.1

Question: What about the “Animals with positive reaction/total number” value ([1]; 50 mg/kg p.o. 30 min before acetic acid) of the same compound?
Answer: 6/8

Question: What about the No. of constrictions ([1]; 50 mg/kg p.o.) of the same compound?
Answer: 5.75 ± 1.32***^$$$

Question: And the “Latent period at 30 min after introduction of test substance” value ([2]; 50 mg/kg p.o.)?
Answer: 5.4 ± 0.46 s

Question: What about the “Latent period at 60 min after introduction of test substance” value ([2]; 50 mg/kg p.o.) of the same compound?
Answer: 9.7 ± 1.05 s

Question: What about the “Rectal temperature at 30 minutes after treatment” value ([3]; 50 mg/kg p.o. 2 h after pyrogenal) of the same compound?
Answer: 36.51 ± 0.15*^$ ° C.

Question: What about the “Index, % (inhibition of oedema)” value [4, 11] of the same compound?
Answer: 66%

Question: And the “Volume of paw after injection of carrageneen” value [4, 11]?
Answer: 1.97 ± 0.10 mL

Question: What about the C ([5]; 45 mg/kg p.o. 1 h before and 20 h after TR 250 mg/kg) of the same compound?
Answer: 381.0 ± 30.3 mg/dL

Question: What about the HDL ([5]; 45 mg/kg p.o., TR 250 mg/kg) of the same compound?
Answer: 62.8 ± 10.9 mg/dL

Question: What about the LDL ([5]; 45 mg/kg p.o., TR 250 mg/kg) of the same compound?
Answer: 307.4 ± 37.8 mg/dL

Question: And the TG ([5]; 45 mg/kg p.o., TR 250 mg/kg)?
Answer: 973 ± 82.7 mg/dL

Question: And the C ([5]; 90 mg/kg p.o., TR 250 mg/kg)?
Answer: 288.1 ± 23.5 mg/dL

Question: And the HDL ([5]; 90 mg/kg p.o., TR 250 mg/kg)?
Answer: 60.0 ± 7.4 mg/dL

Question: What about the LDL ([5]; 90 mg/kg p.o., TR 250 mg/kg) of the same compound?
Answer: 219.1 ± 23.9 mg/dL

Question: And the TG ([5]; 90 mg/kg p.o., TR 250 mg/kg)?
Answer: 791 ± 73.9 mg/dL

Question: What about the Time till occlusion ([6]; 5 mg/kg p.o., single dose 2 h before) of the same compound?
Answer: 35.2 ± 3.02^1 min

Question: And the “Time till occlusion, %” value ([6]; 5 mg/kg p.o., single dose)?
Answer: 144%

Question: And the Time till occlusion [6, 12]?
Answer: 40.9 ± 3.25^1 min

Question: And the “Time till occlusion, %” value [6, 12]?
Answer: 162%
